Legend:
Cucumber fusarium wilt = assay: In vitro fungicidal activity, PDA colony diameter; type: cell-based; details: 96 h, 50 mg/kg, inhibition of colony diameter, read-out: Fungicidal activity (%) Cucumber fusarium wilt
[1] = test system: Cercospora brown spot of peanut; assay: In vitro fungicidal activity, PDA colony diameter; type: cell-based; details: 96 h, 50 mg/kg, inhibition of colony diameter, read-out: Fungicidal activity (%) Cercospora brown spot of peanut
Tomato early blight = assay: In vitro fungicidal activity, PDA colony diameter; type: cell-based, Alternaria solani; details: 50 mg/kg, inhibition of colony diameter; read-out: Fungicidal activity (%) Tomato early blight
Wheat head blight = assay: whole plant or invertebrate; type: cell-based; details: Triticum aestivum, read-out: Fungicidal activity (%) Wheat head blight
Rice bakanae disease = assay: In vitro fungicidal activity, PDA colony diameter; type: cell-based; details: 50 mg/kg, inhibition of colony diameter; read-out: Fungicidal activity (%) Rice bakanae disease
Sclerotinia rot of colza = assay: In vitro fungicidal activity, PDA colony diameter; type: cell-based; details: 96 h, 50 mg/kg, inhibition of colony diameter, read-out: Fungicidal activity (%) Sclerotinia rot of colza
Apple ring rot = assay: In vitro fungicidal activity, PDA colony diameter; type: cell-based; details: inhibition of colony diameter
Summary of the method: (§1)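 Percent growth inhibition derived from colony diameter versus compound-free PDA control after 4 days' culture. Plates contained compound at 50 mg/kg; inoculum was a plug taken from the periphery of a 7-day PDA culture.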

[2] = test system: Capsicum phytophthora blight; assay: In vitro fungicidal activity, PDA colony diameter; type: cell-based; details: 96 h
Summary of the method: as §1

Wheat sheath blight = assay: In vitro fungicidal activity, PDA colony diameter; type: cell-based; details: 50 mg/kg, inhibition of colony diameter; read-out: Fungicidal activity (%) Wheat sheath blight
[3] = test system: Corn southern leaf blight; assay: In vitro fungicidal activity, PDA colony diameter; type: cell-based; details: 50 mg/kg, inhibition of colony diameter; read-out: Fungicidal activity (%) Corn southern leaf blight
Watermelon anthracnose = assay: In vitro fungicidal activity, PDA colony diameter; type: cell-based; details: 50 mg/kg, inhibition of colony diameter; read-out: Fungicidal activity (%) Watermelon anthracnose
Potato late blight = assay: microbe, parasite or virus in culture; type: cell-based; details: Phytophthora infestans, 96 h, read-out: Fungicidal activity (%) Potato late blight
Rice sheath blight = assay: In vitro fungicidal activity, PDA colony diameter; type: cell-based; details: 50 mg/kg, inhibition of colony diameter; read-out: Fungicidal activity (%) Rice sheath blight
Armyworms = assay: Test of insecticidal activity against armyworms (leaf immersion); details: 600 mg/kg, 3-4 days
Maize borers = assay: Test of insecticidal activity against maize borers (leaf immersion); details: read-out: Mortalities (%) Maize borers
[4] = test system: mosquito larvae (Culer pipiens pallens); assay: Test of insecticidal activity against mosquito larvae (checked after 24 h); details: 24 h, read-out: Mortalities (%) against mosquito larvae
Procedure: Method of testing against mosquito larvae: the tested mosquito larvae are Culer pipiens pallens, a normal colony fed indoor. About 5 mg compound to be tested is weighed and loaded into a penicillin vial, 5 mL acetone (or an appropriate solvent) is added into the vial, and the vial is oscillated to dissolve the compound; thus, 1,000 ppm mother liquid is obtained. 1 mL mother liquid is weighed and added into a 100 mL beaker filled with 89 mL water, 10 mosquito larvae in the early stage of the 4th instar together with 10 mL feeding solution are poured into the beaker; thus, the concentration of the pesticide solution is 10 ppm (the pesticide solutions with other concentrations are attained by diluting the mother liquid by corresponding times). […] Water solution that contains 0.5 mL test solvent is used as a blank sample.

[5] = test system: bean aphides (Aphis laburni Kaltenbach); assay: Test of insecticidal activity against aphides (leaf immersion, checked after 96 h); details: Aphis, 96 h, read-out: Mortalities (%) against aphides
Cotton bollworms = assay: Test of insecticidal activity against cotton bollworms (pesticide mixed into feedstuff); details: read-out: Mortalities (%) Cotton bollworms
Procedure: Method of testing against cotton bollworms: the pesticide is mixed into the feedstuff, i.e., 3 mL prepared solution is added into about 27 g freshly prepared feedstuff; thus, required concentration is obtained by diluting by 10 times.

| SMILES | inhibition of growth at 50 mg/kg (Cucumber fusarium wilt) [%] | inhibition of growth at 50 mg/kg [1] [%] | inhibition at 50 mg/kg (Tomato early blight) [%] | inhibition at 50 mg/kg (Wheat head blight) [%] | inhibition at 50 mg/kg (Rice bakanae disease) [%] | inhibition of growth at 50 mg/kg (Sclerotinia rot of colza) [%] | inhibition at 50 mg/kg (Apple ring rot) [%] | inhibition of growth at 50 mg/kg [2] [%] | inhibition at 50 mg/kg (Wheat sheath blight) [%] | inhibition at 50 mg/kg [3] [%] | inhibition at 50 mg/kg (Watermelon anthracnose) [%] | inhibition of growth at 50 mg/kg (Potato late blight) [%] | inhibition at 50 mg/kg (Rice sheath blight) [%] | Mortalities (%) Armyworms (Armyworms) [%] | mortality at 600 mg/kg (Maize borers) [%] | mortality at 10 mg/kg [4] [%] | mortality at 10 mg/kg [5] [%] | mortality at 100 mg/kg [5] [%] | mortality at 600 mg/kg [5] [%] | mortality at 600 mg/kg (Cotton bollworms) [%] | also measured |
| --- | --- | --- | --- | --- | --- | --- | --- | --- | --- | --- | --- | --- | --- | --- | --- | --- | --- | --- | --- | --- | --- |
| CC1=NNC(=O)N(NS(=O)(=O)c2cccs2)C1 [Ia-28, N-(6-methyl-3-oxo-2,3-dihydro-1,2,4-triazin-4(5H)-yl)-thienyl-2-sulfonamide] | 0 | 12 | 23.9 | 8.1 | 17.2 | 15.8 | 0 | 25 | 8.7 | 18.7 | 0 | 0 | 17.4 | 5 | 5 | 100 | 65 | 100 | 100 | 10 | mortality at 5 mg/kg [4]: 20% |
| CC1=NNC(=O)N(NS(=O)(=O)c2ccccc2C)C1 [Ia-10, 2-methyl-N-(6-methyl-3-oxo-2,3-dihydro-1,2,4-triazin-4(5H)-yl)-benzenesulfonamide] | 5.9 | 4 | 9 | 13.5 | 13.8 | 21 | 10.8 | 9.4 | 14.3 | 37.5 | 39.2 | 18.7 | 17.4 | 40 | 40 | 100 | 100 | 100 | 100 | 50 | mortality at 2 mg/kg [4]: 40%; mortality at 5 mg/kg [4]: 100%; mortality at 2.5 mg/kg [5]: 25%; mortality at 5 mg/kg [5]: 90% |
| CC1=NNC(=O)N(NS(C)(=O)=O)C1 [Ia-1, N-(6-methyl-3-oxo-2,3-dihydro-1,2,4-triazin-4(5H)-yl)-methylsulfonylamide] | 0 | 26.3 | 9.5 | 13.3 | 27.8 | 31.7 | 31 | 46.9 | 63.6 | 20.8 | 20.8 | 33.3 | 11.1 | 5 | 0 | 55 | 100 | 100 | 100 | 40 | mortality at 5 mg/kg [5]: 25% |
| CC1=NNC(=O)N(NS(=O)(=O)c2cn(C)cn2)C1 [Ia-31, 1-methyl-N-(6-methyl-3-oxo-2,3-dihydro-1,2,4-triazin-4(5H)-yl)-1H-imidazolyl-4-sulfonamide] | 14.7 | 13 | 16.1 | 17.2 | 12.5 | 31.6 | 29.4 | 18.8 | 47.1 | 2.6 | 28.1 | 18.8 | 5.8 | 10 | 15 | 60 | 35 | 100 | 100 | 5 | – |
